These compounds were tested against T1, Serpin H1 (Human, UniProt P50454) (assay: Inhibition of HSP47 Function).
T1 sequence (P50454 whole entry): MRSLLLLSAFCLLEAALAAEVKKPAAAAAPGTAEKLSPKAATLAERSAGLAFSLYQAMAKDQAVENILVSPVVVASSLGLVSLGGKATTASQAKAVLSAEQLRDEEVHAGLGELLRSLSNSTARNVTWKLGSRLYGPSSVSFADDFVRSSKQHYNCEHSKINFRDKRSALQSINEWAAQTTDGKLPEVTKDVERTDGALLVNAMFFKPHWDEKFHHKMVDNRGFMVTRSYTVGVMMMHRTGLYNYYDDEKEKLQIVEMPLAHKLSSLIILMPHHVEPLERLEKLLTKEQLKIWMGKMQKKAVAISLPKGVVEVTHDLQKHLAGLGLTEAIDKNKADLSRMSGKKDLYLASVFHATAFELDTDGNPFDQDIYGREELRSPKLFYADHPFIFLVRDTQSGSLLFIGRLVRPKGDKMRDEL
Procedure: Fibrils were formed by adding 180 ul of phosphate-buffered saline (PBS, pH 7.4) solution to 20 ul of collagen dissolved in acidic solution (collagen solution, UK), which was measured at a wavelength of 340 nm. HSP47 (GenScript US) was added at a concentration of 9.45 μg/ml to assess HSP47 activity as the degree to which it inhibits fibril formation. Test compound was added with concentrations of 100 μM to 1 μM and the inhibitory activity of HSP47 was calculated as a percentage or EC50.

| EC50 | Structure (SMILES) |
| --- | --- |
| 73.1 µM | CCc1oc2cc(Cl)ccc2c1C(=O)c1cc(Br)c(O)c(Br)c1 [US20250282741, Example 12] |
| 15.9 µM | CCc1oc2c(Cl)cccc2c1C(=O)c1cc(I)c(O)c(I)c1 [US20250282741, Example 14] |
| 32.1 µM | CCc1oc2cc(C(F)(F)F)ccc2c1C(=O)c1cc(Br)c(O)c(Br)c1 [US20250282741, Example 22] |

Reference: BindingDB's records for patent US20250282741 (Innovo Therapeutics, 2025)
